Source: patent US20060242728A1, “Chemically-inducible promotors for the expression of proteins in plants” (priority 2003, published 2006)

Key:
[1] = tested on: NIMIN-2 mRNA; settings: cited from earlier work
[2] = tested on: NIMIN-2 promoter; test: GUS reporter gene activity in leaf discs of transgenic lines floated on inducer; type: cell-based, Arabidopsis thaliana; settings: leaf discs floated on 1 mM SA or 140 mg/l Bion, 3 days, protein extracts; FIG. 3
Description: (§1) For characterizing the influence of chemicals on the activity of the NIMIN promoters, leaf discs were punched from the transgenic lines NIMIN1-GUS and NIMIN2-GUS. As a control, PR-1a promoter fusions were used. The leaf discs were floated on 1 mM SA, 140 mg/l Bion (a functional analogue to salicylic acid) or water. After 3 days, protein extracts were prepared and the activity of the GUS reporter gene in the extracts was assayed. The resulting reporter gene activities were 5 times higher In the NIMIN-2 promoter fusions than In PR-1a promoter fusions (cf. FIG. 3). Further, leaf discs from the transgenic lines NIMIN1-GUS and NIMIN2-GUS were incubated with different salicylic acid concentrations.

[3] = tested on: NIMIN-1 mRNA; settings: cited from earlier work
[4] = tested on: NIMIN promoters; test: GUS reporter gene activity in leaf discs incubated with different salicylic acid concentrations; type: cell-based, Arabidopsis thaliana; settings: leaf discs of NIMIN1-GUS and NIMIN2-GUS lines; FIGS. 4 and 5
Description: as §1

Row | SMILES | inducibility of NIMIN-2 mRNA [1] | reporter gene (GUS) activity in NIMIN-2 promoter fusions relative to PR-1a promoter fusions [2] [times] | inducibility of NIMIN-1 mRNA [3] | activity of the NIMIN promoters versus inducer concentration [4]
1 | CSC(=O)c1cccc2nnsc12 [Bion] | inducible | 5 | inducible | –
2 | O=C(O)c1ccccc1O [salicylic acid] | inducible | 5 | inducible | depends on the salicyclic acid concentration
